Test results published in patent US20230000869A1, “NOVEL ALK2 INHIBITORS AND METHODS FOR INHIBITING BMP SIGNALING” (The Brigham and Women's Hospital, Inc., priority 2017, published 2023).

Experiments:
ACVR2A = ACVR2A (Homo sapiens, UniProt P27037); assay: LanthaScreen Eu kinase binding assay, BMP type II receptor ACVR2A; settings: 10-point titration from 10 μM, 3-fold serial dilution, Life Technologies
Source text: (§1) For the detailed description of LanthaScreen™ Eu kinase binding assay condition, please see: https://www.thermofisher.com/us/en/home/industrial/pharma-biopharma/drug-discovery-development/target-and-lead-identification-and-validation/kinasebiology/kinase-activity-assays/lanthascreentm-eu-kinas e-binding-assay/lanthascreen-eu-kinase-binding-assay-validation-table.html.

ACVR2B = ACVR2B (Homo sapiens, UniProt Q13705); assay: LanthaScreen Eu kinase binding assay, BMP type II receptor ACVR2B; settings: 10-point titration from 10 μM, 3-fold serial dilution, Life Technologies
Protocol: (§2) Kinase Profiling BMP Type II Receptor Experimental Procedure (Life Technologies, 5225 Vernona Road, Madison, Wis. 53744)
(§3) The measurement of each compound's half maximal inhibitory concentration (IC50) for BMP type II receptors (ACVR2A, ACVR2B, BMPR2 and TGFbR2) was carried out at Life Technologies by using its 10-point titration (starting concentration: 10 μM with 3-fold serial dilution) LanthaScreen™ biochemical kinase assay protocol. For the detailed description of LanthaScreen™ Eu kinase binding assay condition, please see: https://www.thermofisher.com/us/en/home/industrial/pharma-biopharma/drug-discovery-development/target-and-lead-identification-and-validation/kinasebiology/kinase-activity-assays/lanthascreentm-eu-kinas e-binding-assay/lanthascreen-eu-kinase-binding-assay-validation-table.html.

BMPR2 = molecular target: T1, BMPR2 (Homo sapiens, UniProt Q13873); assay: LanthaScreen Eu kinase binding assay, BMP type II receptor BMPR2; settings: 10-point titration from 10 μM, 3-fold serial dilution, Life Technologies
T1 sequence (Q13873 27-1038): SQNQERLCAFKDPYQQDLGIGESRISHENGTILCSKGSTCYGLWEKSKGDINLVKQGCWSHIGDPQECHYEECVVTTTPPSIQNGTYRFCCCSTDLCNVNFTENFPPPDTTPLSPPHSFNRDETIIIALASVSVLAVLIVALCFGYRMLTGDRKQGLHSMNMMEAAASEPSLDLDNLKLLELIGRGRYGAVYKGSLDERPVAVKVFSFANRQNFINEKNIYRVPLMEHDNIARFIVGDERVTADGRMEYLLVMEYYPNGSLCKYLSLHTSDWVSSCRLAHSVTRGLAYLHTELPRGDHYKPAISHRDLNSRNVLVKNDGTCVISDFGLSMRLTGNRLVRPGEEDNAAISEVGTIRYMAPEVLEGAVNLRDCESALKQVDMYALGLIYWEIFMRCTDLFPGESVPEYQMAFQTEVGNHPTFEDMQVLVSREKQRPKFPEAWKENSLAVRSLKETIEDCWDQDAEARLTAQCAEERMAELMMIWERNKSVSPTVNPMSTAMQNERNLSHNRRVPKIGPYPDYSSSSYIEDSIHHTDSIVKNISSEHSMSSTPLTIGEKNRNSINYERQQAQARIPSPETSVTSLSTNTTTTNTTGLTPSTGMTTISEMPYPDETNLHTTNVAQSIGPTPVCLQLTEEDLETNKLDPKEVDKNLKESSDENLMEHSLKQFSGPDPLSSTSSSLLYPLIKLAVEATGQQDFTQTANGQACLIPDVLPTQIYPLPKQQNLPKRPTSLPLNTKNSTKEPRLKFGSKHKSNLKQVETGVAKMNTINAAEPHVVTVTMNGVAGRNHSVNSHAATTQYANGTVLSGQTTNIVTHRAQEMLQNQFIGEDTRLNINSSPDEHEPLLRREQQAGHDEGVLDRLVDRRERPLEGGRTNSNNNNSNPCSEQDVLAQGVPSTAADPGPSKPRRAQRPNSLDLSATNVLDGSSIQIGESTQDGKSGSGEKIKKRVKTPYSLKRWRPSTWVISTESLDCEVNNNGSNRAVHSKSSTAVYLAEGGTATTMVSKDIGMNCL
Protocol: as §2, §3

TGFβR2 = TGFβR2 (Homo sapiens, UniProt P37173); assay: LanthaScreen Eu kinase binding assay, BMP type II receptor TGFbR2; settings: 10-point titration from 10 μM, 3-fold serial dilution, Life Technologies
Source text: as §1

BMP6 = assay: Cell assay HTRF BMP6 (Table 15); type: cell-based
TGFb = assay: Cell assay HTRF TGFb (Table 15); type: cell-based; settings: read-out: HRTF TGFb (IC50)

Sequence of ACVR2A (P27037 20-513): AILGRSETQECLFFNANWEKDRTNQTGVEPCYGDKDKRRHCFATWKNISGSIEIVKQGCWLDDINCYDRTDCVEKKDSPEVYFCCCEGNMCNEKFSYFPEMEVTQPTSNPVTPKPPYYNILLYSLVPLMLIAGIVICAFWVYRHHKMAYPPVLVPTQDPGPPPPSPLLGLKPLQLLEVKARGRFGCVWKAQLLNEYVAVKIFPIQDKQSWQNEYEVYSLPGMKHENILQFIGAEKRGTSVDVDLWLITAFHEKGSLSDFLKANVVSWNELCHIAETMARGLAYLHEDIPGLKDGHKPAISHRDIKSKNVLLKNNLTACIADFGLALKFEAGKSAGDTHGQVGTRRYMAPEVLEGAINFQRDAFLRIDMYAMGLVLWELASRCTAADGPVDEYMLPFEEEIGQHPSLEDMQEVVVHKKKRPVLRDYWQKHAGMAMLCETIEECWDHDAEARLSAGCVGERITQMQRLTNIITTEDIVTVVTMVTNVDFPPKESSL
Sequence of ACVR2B (Q13705 19-512): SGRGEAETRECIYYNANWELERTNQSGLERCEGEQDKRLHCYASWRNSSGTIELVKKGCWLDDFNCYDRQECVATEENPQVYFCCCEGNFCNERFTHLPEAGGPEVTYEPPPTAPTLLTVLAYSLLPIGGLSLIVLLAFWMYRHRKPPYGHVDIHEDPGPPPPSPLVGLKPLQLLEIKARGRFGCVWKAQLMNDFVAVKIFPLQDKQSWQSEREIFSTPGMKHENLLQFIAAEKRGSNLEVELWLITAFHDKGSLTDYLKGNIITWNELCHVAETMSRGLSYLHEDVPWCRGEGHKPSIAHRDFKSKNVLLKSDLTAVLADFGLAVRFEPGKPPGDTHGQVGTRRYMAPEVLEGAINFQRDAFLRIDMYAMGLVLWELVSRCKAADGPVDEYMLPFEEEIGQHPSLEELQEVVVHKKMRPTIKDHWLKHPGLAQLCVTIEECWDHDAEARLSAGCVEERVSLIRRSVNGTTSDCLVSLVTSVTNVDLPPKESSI
Sequence of TGFβR2 (P37173 23-567): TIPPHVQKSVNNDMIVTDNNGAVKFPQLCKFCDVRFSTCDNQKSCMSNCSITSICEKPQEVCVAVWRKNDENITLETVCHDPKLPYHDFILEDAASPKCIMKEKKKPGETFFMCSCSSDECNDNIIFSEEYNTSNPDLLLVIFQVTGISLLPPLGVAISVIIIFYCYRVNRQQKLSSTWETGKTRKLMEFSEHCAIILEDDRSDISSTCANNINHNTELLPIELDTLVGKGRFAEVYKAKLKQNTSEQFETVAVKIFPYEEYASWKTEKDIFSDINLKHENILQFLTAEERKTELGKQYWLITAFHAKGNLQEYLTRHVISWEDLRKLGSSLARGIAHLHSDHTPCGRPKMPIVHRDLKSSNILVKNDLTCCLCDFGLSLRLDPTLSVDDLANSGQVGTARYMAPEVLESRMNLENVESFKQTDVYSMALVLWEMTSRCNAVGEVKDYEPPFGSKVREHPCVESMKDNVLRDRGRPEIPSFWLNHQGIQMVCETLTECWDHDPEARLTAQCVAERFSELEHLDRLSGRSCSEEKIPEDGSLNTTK

SMILES	IC50 (ACVR2A) [nM]	IC50 (ACVR2B) [nM]	IC50 (BMPR2) [nM]	IC50 (TGFβR2) [nM]	IC50 (BMP6) [nM]	IC50 (TGFb) [nM]
Cc1cc(-c2cnn3cc(N4CCC(N5CCN(C)CC5)CC4)cnc23)c2ccccc2n1 [Compound 8]	1280	745	> 10000	191	270	2040
c1ccc2c(-c3cnn4cc(-c5ccc(N6CCNCC6)cc5)cnc34)ccnc2c1 [TRND00262637-13]	14.5	20	> 10000	8.06	69	9290
